Patent US10500166B2, “Methods for the treatment of erectile dysfunction using fispemifene” (QUATRX PHARMACEUTICALS, priority 2007, dated 2019)

Tested on: calculated free testosterone
Experiment: Example 3 study in hypogonadal men: calculated serum free testosterone (ITT)
Type: in vivo, human
Description: FIG. 7 depicts a graph of the data of the study from Example 3 showing the calculated serum free testosterone level (ng/dL) over time for each of the treatment groups. The bars from left to right for each of the BL (baseline), 2 week, 4 week, and 6 week timepoints (the 6 week timepoint occurred 2 weeks after the discontinuation of study drug at week 4) correspond to the placebo, 100 mg, 200 mg, and 300 mg/day doses, respectively;
A randomized, double-blind, placebo controlled, parallel-group study of once-daily doses of fispemifene (100, 200, and 300 mg/day) given for 4 weeks was conducted in a population of hypogonadal men. Subjects were required to meet all of the following inclusion criteria at screening and prior to randomization to be eligible for the study:
There were 77 subjects total. The number of subjects randomized to the 100 mg fispemifene, 200 mg fispemifene, 300 mg fispemifene, and placebo arms were 21, 21, 19, and 16, respectively.
Subjects were randomly assigned to one of four treatment groups in a 1:1:1:1 ratio: • Treatment A (100 mg): fispemifene 100 mg+placebo+placebo; • Treatment B (200 mg): fispemifene 100 mg+fispemifene 100 mg+placebo; • Treatment C (300 mg): fispemifene 100 mg+fispemifene 100 mg+fispemifene 100 mg; and • Treatment D (Placebo): placebo+placebo+placebo.
Subjects took one dose (three capsules) of study medication once a day at home for 4 weeks. Capsules were to be taken in the morning immediately after breakfast, with the exception of the morning of the Week 4 visit. Capsules were not to be taken on the morning of the Week 4 visit because trough plasma levels of fispemifene were determined by a blood sample taken at this visit. Each subject was randomly assigned to treatment with one of the 3 different dose regimens of fispemifene or placebo vehicle. Each subject received a 4 week supply of study drug.
Blood samples were taken from the subjects within 1 week prior to dosing with study drug to establish baseline values; after 2 and 4 weeks of randomization; and 2 weeks after the last dose of study drug. Serum was prepared from those samples and used to determine the mean % change from baseline in total testosterone, free testosterone, SHBG (sex hormone-binding globulin), DHT (dihydrotestosterone), E2 (estradiol), LH (luteinizing hormone), FSH (follicle stimulating hormone), and inhibin B.
1. Percent change from baseline in free testosterone and calculated free testosterone at Weeks 2, 4, and 6;

[1] = 100 mg/day, Week 6 (2 weeks after discontinuation)
[2] = 100 mg/day, to Week 6 (2 weeks after discontinuation)
[3] = 200 mg/day, Week 6 (2 weeks after discontinuation)
[4] = 200 mg/day, to Week 6 (2 weeks after discontinuation)
[5] = 300 mg/day, Week 6 (2 weeks after discontinuation)
[6] = 300 mg/day, to Week 6 (2 weeks after discontinuation)

OCCOCCOc1ccc(/C(=C(/CCCl)c2ccccc2)c2ccccc2)cc1 [Fispemifene, (Z)-2-{2-[4-(4-Chloro-1,2-diphenylbut-1-enyl)phenoxy]ethoxy}ethanol]
Calculated Free Testosterone, Max (100 mg/day, Baseline (Visit 2)): 7.54 ng/dL | Calculated Free Testosterone, Mean ± SD (100 mg/day, Baseline (Visit 2)): 4.81 ± 1.368 ng/dL | Calculated Free Testosterone, Median (100 mg/day, Baseline (Visit 2)): 4.95 ng/dL | Calculated Free Testosterone, Min (100 mg/day, Baseline (Visit 2)): 2.19 ng/dL | Calculated Free Testosterone, Max (100 mg/day, Week 2): 10.27 ng/dL | Calculated Free Testosterone, Mean ± SD (100 mg/day, Week 2): 6.64 ± 1.732 ng/dL | Calculated Free Testosterone, Median (100 mg/day, Week 2): 6.46 ng/dL | Calculated Free Testosterone, Min (100 mg/day, Week 2): 4.32 ng/dL | Calculated Free Testosterone, Max (100 mg/day, Week 4): 9.13 ng/dL | Calculated Free Testosterone, Mean ± SD (100 mg/day, Week 4): 6.59 ± 1.396 ng/dL | Calculated Free Testosterone, Median (100 mg/day, Week 4): 6.63 ng/dL | Calculated Free Testosterone, Min (100 mg/day, Week 4): 4.15 ng/dL | Calculated Free Testosterone, Max [1]: 7.05 ng/dL | Calculated Free Testosterone, Mean ± SD [1]: 5.15 ± 1.057 ng/dL | Calculated Free Testosterone, Median [1]: 5.10 ng/dL | Calculated Free Testosterone, Min [1]: 2.57 ng/dL | Calculated Free Testosterone, % Change from Baseline, Max (100 mg/day, to Week 2): 100% | Calculated Free Testosterone, % Change from Baseline, Median (100 mg/day, to Week 2): 36% | Calculated Free Testosterone, % Change from Baseline, Min (100 mg/day, to Week 2): 8% | Calculated Free Testosterone, % Change from Baseline, Max (100 mg/day, to Week 4): 157% | Calculated Free Testosterone, % Change from Baseline, Median (100 mg/day, to Week 4): 36% | Calculated Free Testosterone, % Change from Baseline, Max [2]: 115% | Calculated Free Testosterone, % Change from Baseline, Median [2]: 8% | Calculated Free Testosterone, Max (200 mg/day, Baseline (Visit 2)): 7.29 ng/dL | Calculated Free Testosterone, Mean ± SD (200 mg/day, Baseline (Visit 2)): 4.80 ± 1.143 ng/dL | Calculated Free Testosterone, Median (200 mg/day, Baseline (Visit 2)): 4.70 ng/dL | Calculated Free Testosterone, Min (200 mg/day, Baseline (Visit 2)): 2.66 ng/dL | Calculated Free Testosterone, Max (200 mg/day, Week 2): 8.98 ng/dL | Calculated Free Testosterone, Mean ± SD (200 mg/day, Week 2): 6.37 ± 1.386 ng/dL | Calculated Free Testosterone, Median (200 mg/day, Week 2): 6.21 ng/dL | Calculated Free Testosterone, Min (200 mg/day, Week 2): 4.11 ng/dL | Calculated Free Testosterone, Max (200 mg/day, Week 4): 9.83 ng/dL | Calculated Free Testosterone, Mean ± SD (200 mg/day, Week 4): 6.64 ± 1.658 ng/dL | Calculated Free Testosterone, Median (200 mg/day, Week 4): 6.39 ng/dL | Calculated Free Testosterone, Min (200 mg/day, Week 4): 4.05 ng/dL | Calculated Free Testosterone, Max [3]: 7.81 ng/dL | Calculated Free Testosterone, Mean ± SD [3]: 5.153 ± 1.328 ng/dL | Calculated Free Testosterone, Median [3]: 4.88 ng/dL | Calculated Free Testosterone, Min [3]: 3.60 ng/dL | Calculated Free Testosterone, % Change from Baseline, Max (200 mg/day, to Week 2): 124% | Calculated Free Testosterone, % Change from Baseline, Median (200 mg/day, to Week 2): 28% | Calculated Free Testosterone, % Change from Baseline, Min (200 mg/day, to Week 2): 1% | Calculated Free Testosterone, % Change from Baseline, Max (200 mg/day, to Week 4): 112% | Calculated Free Testosterone, % Change from Baseline, Median (200 mg/day, to Week 4): 40% | Calculated Free Testosterone, % Change from Baseline, Max [4]: 75% | Calculated Free Testosterone, % Change from Baseline, Median [4]: 6% | Calculated Free Testosterone, Max (300 mg/day, Baseline (Visit 2)): 7.02 ng/dL | Calculated Free Testosterone, Mean ± SD (300 mg/day, Baseline (Visit 2)): 4.66 ± 1.509 ng/dL | Calculated Free Testosterone, Median (300 mg/day, Baseline (Visit 2)): 4.94 ng/dL | Calculated Free Testosterone, Min (300 mg/day, Baseline (Visit 2)): 0.23 ng/dL | Calculated Free Testosterone, Max (300 mg/day, Week 2): 9.79 ng/dL | Calculated Free Testosterone, Mean ± SD (300 mg/day, Week 2): 6.43 ± 2.152 ng/dL | Calculated Free Testosterone, Median (300 mg/day, Week 2): 7.25 ng/dL | Calculated Free Testosterone, Min (300 mg/day, Week 2): 0.14 ng/dL | Calculated Free Testosterone, Max (300 mg/day, Week 4): 10.31 ng/dL | Calculated Free Testosterone, Mean ± SD (300 mg/day, Week 4): 7.33 ± 2.589 ng/dL | Calculated Free Testosterone, Median (300 mg/day, Week 4): 8.40 ng/dL | Calculated Free Testosterone, Min (300 mg/day, Week 4): 0.10 ng/dL | Calculated Free Testosterone, Max [5]: 8.02 ng/dL | Calculated Free Testosterone, Mean ± SD [5]: 5.29 ± 1.791 ng/dL | Calculated Free Testosterone, Median [5]: 5.44 ng/dL | Calculated Free Testosterone, Min [5]: 0.22 ng/dL | Calculated Free Testosterone, % Change from Baseline, Max (300 mg/day, to Week 2): 83% | Calculated Free Testosterone, % Change from Baseline, Median (300 mg/day, to Week 2): 40% | Calculated Free Testosterone, % Change from Baseline, Max (300 mg/day, to Week 4): 133% | Calculated Free Testosterone, % Change from Baseline, Median (300 mg/day, to Week 4): 59% | Calculated Free Testosterone, % Change from Baseline, Max [6]: 65% | Calculated Free Testosterone, % Change from Baseline, Median [6]: 10%
